Experimental data published in patent US8455244B2, “Co-crystallization of ERR-α with a ligand that forms a reversible covalent bond” (Janssen Pharmaceutica N.V., priority 2009, dated 2013).

Experiments:
ERR-α [1] = biological target: T1, ERR-α (Homo sapiens, UniProt P11474); assay: LC/MS dissociation rate with 20-fold excess Compound 2 as competing ligand; assay type: binding; design: made in house; host or cells: Spodoptera frugiperda (Sf9) insect cells, baculovirus; conditions: ligand 1 μM, ERR-α 0.5 μM, competing ligand 20 μM, 37° C., assumed first order
T1 sequence (P11474 with tags, fused parts or gaps): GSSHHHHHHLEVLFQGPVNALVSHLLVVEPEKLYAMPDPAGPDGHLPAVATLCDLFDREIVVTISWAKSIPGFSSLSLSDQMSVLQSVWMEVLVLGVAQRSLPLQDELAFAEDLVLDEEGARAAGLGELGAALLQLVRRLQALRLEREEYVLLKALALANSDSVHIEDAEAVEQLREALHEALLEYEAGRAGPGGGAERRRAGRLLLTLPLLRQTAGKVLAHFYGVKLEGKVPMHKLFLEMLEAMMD
From the text: The progress of the reaction was also expressed as a fraction of the area observed for the complex of ERR-α and the competing ligand over the sum of total area for the complex of ERR-α with the ligand and the complex of ERR-α with the competing ligand.
where k is the apparent rate constant.

ERR-α [2] = biological target: T1, ERR-α; assay: biochemical; conditions: pH 7.9, read-out: ka
Protocol: To monitor the kinetics of association and dissociation for ligands that formed a complex with ERR-α by forming a covalent bond to Cys325 of ERR-α, LC/MS detection was employed. LC analysis was performed on an Agilent 1100 LC system that was in line with an Agilent MSD TOF for mass detection. Software provided by the vendor was used to deconvolute the ESI positive ion quadrupole time-of-flight spectra. To measure association rates, typically a 1 μM ERR-α solution was mixed with an equal volume of a 2 μM ligand solution. […]
For the apo form of ERR-α, a mass of 27042 was detected, corresponding to an amino acid sequence where the initiator methionine is cleaved followed by N-terminal acetylation.
Association and dissociation rates for ligands were determined by fitting fractional values obtained for the progress of the reaction as a function of time using a single exponential equation progress of reaction=e^−kt
where k is the apparent rate constant. For the dissociation experiments, the reaction is assumed to be first order and dissociation rates, kd, are expressed as s^−1. For the association rates, k^a, the reaction is assumed to be second order and the rates are expressed as M^−1s^−1 by dividing the apparent rate constants by the concentration of the protein determined by experimental conditions (Table 4).

ERR-α [3] = biological target: ERR-α (Homo sapiens, UniProt P11474); assay: biochemical
Protocol: For TR-FRET measurements, the reaction was buffered in 25 mM Tris pH 8, 2.5 mM Hepes, 20 mM KCl, 1 mM DTT, and 0.05 mg/mL BSA (-lipids). […] Reactions were allowed to reach equilibrium at 25° C. for 4-18 hours before collecting data on the Analyst from LJL Biosystems (Molecular Devices Sunnyvale, Calif.).
Target sequence in this assay (P11474 with tags, fused parts or gaps limits assumed): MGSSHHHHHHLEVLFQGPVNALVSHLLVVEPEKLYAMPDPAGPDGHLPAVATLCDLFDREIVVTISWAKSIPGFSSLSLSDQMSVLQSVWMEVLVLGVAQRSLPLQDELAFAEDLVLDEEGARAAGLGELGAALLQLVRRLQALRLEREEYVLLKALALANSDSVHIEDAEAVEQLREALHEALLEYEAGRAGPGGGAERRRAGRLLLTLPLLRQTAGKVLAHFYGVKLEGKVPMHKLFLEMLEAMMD

| Compound | kd (ERR-α [1]) | kon (ERR-α [2]) | EC50 (ERR-α [3]) |
| --- | --- | --- | --- |
| COc1cc(/C=C2\SC(N3CCN(C)CC3)=NC2=O)ccc1Oc1ccc(C#N)cc1C(F)(F)F [Compound 3] | 1.53e-05 s⁻¹ | – | – |
| COc1cc(/C=C2\SC(N)=NC2=O)ccc1Oc1ccc(C#N)cc1C(F)(F)F [Compound 5] | 2.05e-05 s⁻¹ | – | – |
| CN1CCN(C2=NC(=O)/C(=C/c3ccc(Oc4ccc(C#N)cc4C(F)(F)F)c(F)c3)S2)CC1 [Compound 4] | 2.19e-05 s⁻¹ | – | – |
| COc1cc(/C=C2\SC(=O)NC2=O)ccc1Oc1ccc(C#N)cc1C(F)(F)F [Compound 1] | 1.1e-05 s⁻¹ | 6600 M⁻¹ s⁻¹ | – |
| COC(=O)c1ccc(Oc2ccc(/C=C3\SC(=O)NC3=O)cc2OC)c(C(F)(F)F)c1 [Compound 2] | – | – | 11 nM |
